Counter-ions that a name gives are not always drawn. Starred links: 1 amine or outer side, 2 acyl side, 3 side chain; linkers in the order of their positions; H or OH if unused. Positions of bridges follow the written chain, without caps; N, C: chain ends. Non-standard residues stand in square brackets, D forms with d. Residues, ends and D or L forms follow the SMILES beside them. *: point of attachment. X1 = NC1=N[C@@H]([C@H](N[*:1])C(=O)[*:2])C[C@H](O)N1; ΔAla(Z-3-ureido) = NC(=O)N/C=C(\N)C(=O)O; β3hOrn = NCCC[C@H](N)CC(=O)*; X3 = CC[C@H](C)CCCCC(=O)*; Dab = NCC[C@H](N)C(=O)O; Dap = NC[C@H](N)C(=O)O
Test: in vitro
Details: rat, gh3-tre-luc cells, AC50 (uM) modified / 1000

Row | Structure (SMILES) | CC50 at 24 h [µM]
1 | NCCC[C@H](N)CC(=O)N[C@H]1CNC(=O)[C@H]([C@H]2C[C@H](O)NC(N)=N2)NC(=O)/C(=C/NC(N)=O)NC(=O)[C@H](CO)NC(=O)[C@H](CO)NC1=O [Viomycin sulfate] (β3hOrn-[Dap]SS[ΔAla(Z-3-ureido)][X1]; lactam 1-C) | > 50
2 | CO/N=C(/C(=O)OC)c1ccccc1COc1ccccc1C [Kresoxim-methyl] | > 90
3 | CN1C[C@@H](NS(=O)(=O)N(C)C)C[C@@H]2c3cccc4c3c(cn4C)C[C@H]21 [Mesulergine] | 22.3
4 | CCOC(=O)c1cccc(N)c1 [Ethyl 3-aminobenzoate methanesulfonic acid salt] | > 50
5 | CCCCC(CC)COC(=O)CS (stereo not drawn) [2-Ethylhexyl sulfanylacetate] | > 90
6 | C=CN1CCCC1=O [N-Vinyl-2-pyrrolidone] | > 90
7 | CC(C)N1C(=O)N(c2ccccc2)CS/C1=N\C(C)(C)C [Buprofezin] | 45.1
8 | c1ccc2c(c1)ccc1cc3c(ccc4ccccc43)cc12 [Dibenz(a,h)anthracene] | > 50
9 | Cc1nc2ccc(CN(C)c3ccc(C(=O)N[C@@H](CCC(=O)O)C(=O)O)s3)cc2c(=O)[nH]1 [Raltitrexed] | > 50
10 | O=[N+]([O-])c1cccc(Cl)c1 [1-Chloro-3-nitrobenzene] | > 90
11 | Cc1ccc(-c2ccccc2)cc1 [4-Phenyltoluene] | > 90
12 | ClC(Cl)Cl [Chloroform] | > 90
13 | Cc1c(I)c(=O)n(-c2ccccc2)n1C [Iodoantipyrine] | > 50
14 | COc1ccc2c(c1OC)C(=O)O[C@@H]2[C@H]1c2c(cc3c(c2OC)OCO3)CCN1C [Noscapine] | 15
15 | COc1cc(O)cc(O)c1 [Flamenol] | > 50
16 | Oc1c(Cl)cc(Cl)c2cccnc12 [Chloroxine] | 5.91
17 | CC1CCCNC1 (stereo not drawn) [3-Methylpiperidine] | > 90
18 | COc1cccc([C@@]2(O)CCCC[C@@H]2CN(C)C)c1 [Tramadol hydrochloride] | > 50
19 | Nc1ccc(N=Nc2ccc(N)cc2)cc1 [4,4'-Diaminoazobenzene] | 32.1
20 | O=[N+]([O-])c1ccc(CCO)cc1 [2-(4-Nitrophenyl)ethanol] | > 90
21 | CCCCOCCOCCOC(=O)CCCCC(=O)OCCOCCOCCCC [Bis[2-(2-butoxyethoxy)ethyl] adipate] | > 90
22 | CCCCCCCCOc1ccccc1C(=O)Nc1ccc(C(=O)OCC[N+](C)(CC)CC)cc1 [Otilonium bromide] | 22.8
23 | CC/C=C\CC1=C(C)CCC1=O [Jasmone] | > 90
24 | CC(C)=CC(=O)C=C(C)C [Phorone] | > 90
25 | Cc1cc(SC2=C(O)C[C@@](CCc3ccc(N)cc3)(C(C)C)OC2=O)c(C(C)(C)C)cc1CO [CI-1029] | > 90
26 | NCCC(O)(P(=O)(O)O)P(=O)(O)O [Pamidronic acid] | > 50
27 | CCC1(c2ccccc2)C(=O)NC(=O)NC1=O [Phenobarbital] | > 90

Row | Structure (SMILES) | CC50 at 24 h [µM]
28 | CCc1cccc2c3c([nH]c12)C(CC)(CC(=O)O)OCC3 (stereo not drawn) [Etodolac] | > 90
29 | C/C=C(\C)C(=O)OCCc1ccccc1 [Phenethyl tiglate] | > 90
30 | CCC(Cc1ccccc1)(C(=O)c1ccc(N2CCOCC2)cc1)N(C)C (stereo not drawn) [2-Benzyl-2-(dimethylamino)-1-[4-(morpholin-4-yl)phenyl]butan-1-one] | 68.2
31 | CCCCC(CC)CCC(CC(C)C)OS(=O)(=O)O (stereo not drawn) [7-Ethyl-2-methyl-4-undecanolsulfate, sodium salt] | > 90
32 | OCC=CCO [2-Butene-1,4-diol] | > 90
33 | Cc1cc(C(=O)NCCc2ccc(S(=O)(=O)NC(=O)NN3CCCCCC3)cc2)no1 [Glisoxepide] | > 50
34 | CCOc1ccc([N+](=O)[O-])cc1 [1-Ethoxy-4-nitrobenzene] | 39.1
35 | Cc1cc(C)cc([N+](=O)[O-])c1 [1,3-Dimethyl-5-nitrobenzene] | > 90
36 | CC1CCC(CO)CC1 (stereo not drawn) [4-Methylcyclohexanemethanol] | > 90
37 | COCCc1ccc(OCC(O)CNC(C)C)cc1 (stereo not drawn) [Metoprolol tartrate] | > 50
38 | CN[C@H](CC(C)C)C(=O)N[C@H]1C(=O)N[C@@H](CC(N)=O)C(=O)N[C@H]2C(=O)N[C@H]3C(=O)N[C@H](C(=O)N[C@H](C(=O)O)c4cc(O)cc(O)c4-c4cc3ccc4O)[C@H](O)c3ccc(c(Cl)c3)Oc3cc2cc(c3O[C@@H]2O[C@H](CO)[C@@H](O)[C@H](O)[C@H]2O[C@H]2C[C@](C)(N)[C@H](O)[C@H](C)O2)Oc2ccc(cc2Cl)[C@H]1O [Vancomycin hydrochloride] | > 50
39 | CC(=O)C(Cl)(Cl)Cl [1,1,1-Trichloropropanone] | 13.3
40 | O=P(O)(O)C(O)(Cn1ccnc1)P(=O)(O)O [Zoledronate] | > 50
41 | C=C(C)C(=O)NCCC[N+](C)(C)C [N,N,N-Trimethyl-3-[(2-methylacryloyl)amino]propan-1-aminium chloride] | > 90
42 | Oc1ccc(C(=C(Cl)Cl)c2ccc(O)cc2)cc1 [Bis(4-hydroxyphenyl)-2,2-dichloroethylene] | > 90
43 | C#C[C@]1(O)CC[C@H]2[C@@H]3CCC4=CC(=O)CCC4=C3C=C[C@@]21CC [Gestrinone] | > 50
44 | Fc1c(F)c(F)c(Br)c(F)c1F [Bromopentafluorobenzene] | > 90
45 | O=C(O)C(=O)Nc1cccc(-c2nnn[nH]2)c1 [Acitazanolast] | > 50
46 | CC(CC(=O)Cl)CC(C)(C)C (stereo not drawn) [3,5,5-Trimethylhexanoyl chloride] | > 90
47 | O=C(Nc1ccccc1-c1ccc(Cl)cc1)c1cccnc1Cl [Boscalid] | > 100
48 | CCCCCCCCCCCCCCCC(=O)O[C@@H]1CC(C)=C(/C=C/C(C)=C/C=C/C(C)=C/C=C/C=C(C)/C=C/C=C(C)/C=C/C2=C(C)C[C@@H](OC(=O)CCCCCCCCCCCCCCC)CC2(C)C)C(C)(C)C1 [Physalien] | > 50
49 | CC[C@H](C)CCCCC(=O)N[C@@H](CCN)C(=O)N[C@H](C(=O)N[C@@H](CCN)C(=O)N[C@H]1CCNC(=O)[C@H]([C@@H](C)O)NC(=O)[C@H](CCN)NC(=O)[C@H](CCN)NC(=O)[C@H](CC(C)C)NC(=O)[C@@H](CC(C)C)NC(=O)[C@H](CCN)NC1=O)[C@@H](C)O [Colistin A] (X3-[Dab]T[Dab][Dab][Dab][dL]L[Dab][Dab]T; lactam 4-C) | > 50
50 | OCC#CCO [2-Butyne-1,4-diol] | > 90
51 | C=CCOCC(O)CS(=O)(=O)O (stereo not drawn) [Sodium 3-(allyloxy)-2-hydroxypropanesulphonate] | > 90
52 | CCOC(=O)[C@H](CCc1ccccc1)N[C@@H](C)C(=O)N1[C@H](C(=O)O)C[C@@H]2CCC[C@@H]21 [Ramipril] | > 50
53 | CC(=O)OCCC(C)CC(C)(C)C (stereo not drawn) [3,5,5-Trimethylhexyl acetate] | > 90
54 | O=[N+]([O-])c1ccc2[nH]ncc2c1 [5-Nitroindazole] | > 90

Same assay, conditions: rat, gh3-tre-luc cells, AC50 (uM) modified / 1000, Tox21_110001=Tox21_111044; viability, 1 nM T3 present, 24 h

Row | Structure (SMILES) | CC50 at 24 h [µM]
55 | C1CCC(NC2CCCCC2)CC1 [Dicyclohexylamine] | > 50

Same assay, conditions: rat, gh3-tre-luc cells, AC50 (uM) modified / 1000, Tox21_110001=Tox21_200267; viability, 1 nM T3 present, 24 h

Row | Structure (SMILES) | CC50 at 24 h [µM]
56 | O=NN1CCCCC1 [N-Nitrosopiperidine] | > 90

Same assay, conditions: rat, gh3-tre-luc cells, AC50 (uM) modified / 1000, Tox21_110001=Tox21_201771; viability, 1 nM T3 present, 24 h

Row | Structure (SMILES) | CC50 at 24 h [µM]
57 | C1CCC(NC2CCCCC2)CC1 [Dicyclohexylamine] | > 90

Same assay, conditions: rat, gh3-tre-luc cells, AC50 (uM) modified / 1000, Tox21_110001=Tox21_201788; viability, 1 nM T3 present, 24 h

Row | Structure (SMILES) | CC50 at 24 h [µM]
58 | CC(C#N)CCC#N (stereo not drawn) [2-Methylpentanedinitrile] | > 90

Same assay, conditions: rat, gh3-tre-luc cells, AC50 (uM) modified / 1000, Tox21_110001=Tox21_202246; viability, 1 nM T3 present, 24 h

Row | Structure (SMILES) | CC50 at 24 h [µM]
59 | CNC(=O)CSP(=S)(OC)OC [Dimethoate] | > 90

Same assay, conditions: rat, gh3-tre-luc cells, AC50 (uM) modified / 1000, Tox21_110001=Tox21_302651; viability, 1 nM T3 present, 24 h

Row | Structure (SMILES) | CC50 at 24 h [µM]
60 | C=CC(=O)OCCCCO [4-Hydroxybutyl prop-2-enoate] | 73.9

From paper PMC6792352, “Limited Chemical Structural Diversity Found to Modulate Thyroid Hormone Receptor in the Tox21 Chemical Library” (Environmental Health Perspectives, 2019)
